This note sets out measurements from ChEMBL document CHEMBL2203268, “Resveratrol as a kcat type inhibitor for tyrosinase: potentiated melanogenesis inhibitor” (Bioorg Med Chem, 2012).

Data set [1] has as its system B16-F10. The data set can be described thus: Cytotoxicity against mouse B16F10 cells assessed as suppression of cell viability at 12.5 to 200 uM after 72 hrs. The settings on record: b16-f10, 72 h. Type of data set: cell-based.
Data set [2] has as its system B16-F10. The data set can be described thus: Antimelanogenic activity in mouse assessed as cellular melanin content B16F10 cells after 72 hrs by spectrophotometric analysis. In kind it is functional, cell-based.
Data set [3] concerns B16-F10. The data set can be described thus: Cytotoxicity against mouse B16F10 cells assessed as suppression of cell viability at 400 uM after 72 hrs. In kind it is cell-based. The settings on record: b16-f10, 72 h.
Data set [4] addresses T1, Tyrosinase (Agaricus bisporus) (UniProt O42713).
T1 sequence (whole entry): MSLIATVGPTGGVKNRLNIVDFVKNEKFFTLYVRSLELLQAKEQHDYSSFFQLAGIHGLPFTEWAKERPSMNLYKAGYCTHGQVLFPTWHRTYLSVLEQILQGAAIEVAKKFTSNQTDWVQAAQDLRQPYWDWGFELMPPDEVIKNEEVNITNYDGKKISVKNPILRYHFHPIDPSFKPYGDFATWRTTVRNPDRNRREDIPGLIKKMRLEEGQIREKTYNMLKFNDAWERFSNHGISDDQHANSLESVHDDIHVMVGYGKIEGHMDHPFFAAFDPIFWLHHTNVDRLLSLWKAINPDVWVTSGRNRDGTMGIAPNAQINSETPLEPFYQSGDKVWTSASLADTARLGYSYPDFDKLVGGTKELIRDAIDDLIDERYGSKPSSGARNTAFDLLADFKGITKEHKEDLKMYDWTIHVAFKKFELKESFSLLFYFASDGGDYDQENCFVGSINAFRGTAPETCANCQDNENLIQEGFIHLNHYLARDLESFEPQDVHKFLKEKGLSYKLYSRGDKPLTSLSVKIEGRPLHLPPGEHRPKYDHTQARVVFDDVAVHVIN
The data set can be described thus: Inhibition of mushroom tyrosinase-mediated L-DOPA oxidation at 100 uM after 30 mins by UV-vis spectrophotometric analysis.

The target of data set [5] is T1, Tyrosinase (Agaricus bisporus). The data set can be described thus: Inhibition of mushroom tyrosinase-mediated L-DOPA oxidation assessed as decrease in dopachrome formation at 100 uM incubated 30 mins prior to substrate addition measured after 60 mins by UV-vis spectrophotometric analysis.
Data set [6] in a line: Drug metabolism assessed as oxidation of the compound at 100 uM by HPLC analysis in the presence of tyrosinase. In kind it is physicochemical. The settings on record: TDE = time-dependent effect.
In data set [7] the test system is B16-F10. The data set can be described thus: Cytotoxicity against mouse B16F10 cells assessed as suppression of cell viability after 72 hrs. Type of data set: cell-based.
Data set [8] deals with T1, Tyrosinase (Agaricus bisporus). Briefly: Inhibition of mushroom tyrosinase assessed as L-DOPA oxidation at 100 uM incubated 30 mins prior to substrate addition measured after 60 mins by UV-vis spectrophotometric analysis.
The target is the same in data set [9]. Briefly: Activation of mushroom tyrosinase assessed as L-DOPA oxidation at 100 uM after 30 mins by UV-vis spectrophotometric analysis.
Data set [10] shares this target. The data set can be described thus: Inhibition of mushroom tyrosinase-mediated oxygen consumption at 100 uM using L-DOPA substrate incubated 30 mins prior to substrate addition measured after 60 mins.
Data set [11] has the same target. The data set can be described thus: Inhibition of mushroom tyrosinase-mediated L-tyrosine oxidation at 100 uM after 60 mins by HPLC analysis.
The target is the same in data set [12]. Briefly: Inhibition of mushroom tyrosinase-mediated oxygen consumption at 100 uM using L-tyrosine substrate incubated 30 mins prior to substrate addition measured after 60 mins.
Data set [13] has the same target. The data set can be described thus: Inhibition of mushroom tyrosinase-mediated dopachrome formation after 60 mins by UV-vis spectrophotometric analysis.
Data set [14] shares this target. Briefly: Inhibition of mushroom tyrosinase-mediated oxygen consumption using L-tyrosine substrate after 60 mins.
Data set [15] in a line: Drug metabolism assessed as oxidation of the compound at 100 uM after 30 mins by HPLC analysis in the presence of tyrosinase. In kind it is physicochemical. As to conditions: 0.5 h.
For data set [16], the system named is tyrosinase. The data set can be described thus: Drug metabolism assessed as oxidation of the compound at 100 uM after 60 mins by HPLC analysis in the presence of tyrosinase. The settings on record: read-out: Drug metabolism. Type of data set: physicochemical.
Data set [17] addresses T1, Tyrosinase (Agaricus bisporus). Briefly: Inhibition of mushroom tyrosinase assessed as L-DOPA oxidation HPLC analysis.
For data set [18] the target is unchanged. Briefly: Inhibition of mushroom tyrosinase-mediated L-tyrosine oxidation after 60 mins by HPLC analysis.
The target is the same in data set [19]. Briefly: Activation of mushroom tyrosinase assessed as oxygen consumption using L-tyrosine substrate after 60 mins.
The target is the same in data set [20]. Briefly: Activation of mushroom tyrosinase assessed as dopachrome formation after 60 mins by UV-vis spectrophotometric analysis.
Data set [21] has the same target. The data set can be described thus: Inhibition of mushroom tyrosinase-mediated oxygen consumption using L-DOPA substrate at 100 uM after 30 mins.
For data set [22] the target is unchanged. Briefly: Inhibition of mushroom tyrosinase assessed as L-tyrosine oxidation at 100 uM incubated 30 mins prior to substrate addition measured after 60 mins by UV-vis spectrophotometric analysis.
Data set [23] concerns B16-F10. The data set can be described thus: Antimelanogenic activity in mouse assessed as cellular melanin content B16F10 cells at 200 uM after 72 hrs spectrophotometric analysis. In kind it is functional, cell-based.
For data set [24], the target named is T1, Tyrosinase (Agaricus bisporus). The data set can be described thus: Inhibition of mushroom tyrosinase-mediated L-DOPA oxidation assessed as recovery of enzymatic activity at 100 uM preincubated for 30 mins by HPLC analysis in the presence of 200 uM of L-cysteine.
Data set [25] in a line: Drug metabolism assessed as oxidation of the compound at 100 uM after 10 mins by UV-vis spectrophotometric analysis in the presence of tyrosinase. In kind it is physicochemical.
Data set [26] concerns B16-F10. The data set can be described thus: Cytotoxicity against mouse B16F10 cells assessed as suppression of cell viability at 200 uM after 72 hrs. Type of data set: cell-based. The settings on record: b16-f10, 72 h.
In data set [27] the target is T1, Tyrosinase (Agaricus bisporus). The data set can be described thus: Inhibition of mushroom tyrosinase-mediated L-DOPA oxidation assessed as decrease in dopachrome formation at 100 uM preincubated for 30 mins by HPLC analysis.
Data set [28] shares this target. Briefly: Inhibition of mushroom tyrosinase-mediated L-tyrosine oxidation assessed as decrease in dopachrome formation at 100 uM after 60 mins by UV-vis spectrophotometric analysis.

Activity calls are given as the source filed them. No cut-off for these calls is given here.

The inhibition is the relative decrease from the control value, in per cent. Broadly, the IC50 is the concentration that inhibits the measured activity by half.

Regarding `Oc1cc(O)cc(/C=C\c2ccccc2)c1`, the Activity entry in [1] is “Non-toxic”. The outcome in data set [2] was inactive.
As for `Oc1cc(O)cc(CCc2ccccc2)c1` [DIHYDROPINOSYLVIN], the Activity result in data set [1] is “Non-toxic”. Also, the result in data set [2] was inactive.
`Oc1cc(O)cc(/C=C/c2ccccc2)c1` [PINOSYLVIN]: the figures for the Activity entry in data set [1] and in [3] were “Non-toxic” and “Toxic”, respectively.
As for `Oc1ccc(/C=C/c2cc(O)cc(O)c2)cc1` [RESVERATROL], the Activity entry in [1] is “Non-toxic”; in data set [7] (mouse, b16-f10, 72 h), “Dose-dependent effect”; in [19] it was “Dose-dependent effect”; in data set [20], “Dose-dependent effect”; in data set [2], “Dose-dependent effect”; in data set [26] it was 10%. Moreover, the inhibition entry in [4], in [13], in [14] and in data set [21] was “inactive” throughout. In addition, the inhibition entry in data set [5], in [10], in [11], in data set [12], in data set [17] and in [22] was “Active” throughout. The inhibition result in [28] was “Active”. Besides, the Drug metabolism entry in data set [6] is listed as “tde”; in data set [15], “Active”; in data set [25], “Active”. The IC50 in data set [7] (Mus musculus, B16-F10, 72 h) was greater than 200 µM. The inhibition was 90% in data set [8], “Dose-dependent effect” in [18], 20% in [24] and 10% in [27]. Moreover, in [9], the result was inactive. Further, in data set [16], the metabolised at 1 h, 100 µM is 90%. In [23], the outcome was Active.
